Test results published in the NIST ThermoML archive (doi:10.1016/j.jct.2015.12.023).
Numbers after ± are expanded uncertainties.

Assay: mn = molality of the nth substance listed, in mol/kg
Details: 100 kPa, Liquid; for speed of sound: Frequency=3 MHz, Sing-around technique in a fixed-path interferometer; for mass density: Vibrating tube method

Q: With `CCCC[N+](CCCC)(CCCC)CCCC.[I-]` [tetrabutylammonium iodide] + O as the compound, how does the speed of sound (288.15 K, m1 = 0.01) read?
A: 1468.9 ± 1.3 m/s

Q: And the speed of sound (288.15 K, m1 = 0.02)?
A: 1471.3 ± 1.3 m/s

Q: And the speed of sound (288.15 K, m1 = 0.03)?
A: 1473.6 ± 1.3 m/s

Q: And the speed of sound (288.15 K, m1 = 0.04)?
A: 1475.8 ± 1.3 m/s

Q: What about the mass density (288.15 K, m1 = 0.01) of the same compound?
A: 1001.07 ± 2 kg/m3

Q: What about the mass density (288.15 K, m1 = 0.02) of the same compound?
A: 1001.64 ± 2 kg/m3

Q: What about the mass density (288.15 K, m1 = 0.03) of the same compound?
A: 1002.22 ± 2 kg/m3

Q: What about the mass density (288.15 K, m1 = 0.04) of the same compound?
A: 1002.83 ± 2 kg/m3

Q: And the speed of sound (293.15 K, m1 = 0.01)?
A: 1484.9 ± 1.3 m/s

Q: What about the speed of sound (293.15 K, m1 = 0.02) of the same compound?
A: 1487.1 ± 1.3 m/s

Q: What about the speed of sound (293.15 K, m1 = 0.03) of the same compound?
A: 1489.1 ± 1.3 m/s

Q: What about the speed of sound (293.15 K, m1 = 0.04) of the same compound?
A: 1491.3 ± 1.3 m/s

Q: And the mass density (293.15 K, m1 = 0.01)?
A: 1000.16 ± 2 kg/m3

Q: What about the mass density (293.15 K, m1 = 0.02) of the same compound?
A: 1000.72 ± 2 kg/m3

Q: What about the mass density (293.15 K, m1 = 0.03) of the same compound?
A: 1001.29 ± 2 kg/m3

Q: And the mass density (293.15 K, m1 = 0.04)?
A: 1001.88 ± 2 kg/m3

Q: What about the speed of sound (298.15 K, m1 = 0.01) of the same compound?
A: 1498.9 ± 1.3 m/s

Q: What about the speed of sound (298.15 K, m1 = 0.02) of the same compound?
A: 1500.9 ± 1.3 m/s

Q: What about the speed of sound (298.15 K, m1 = 0.03) of the same compound?
A: 1502.8 ± 1.3 m/s

Q: What about the speed of sound (298.15 K, m1 = 0.04) of the same compound?
A: 1504.7 ± 1.3 m/s

Q: What about the mass density (298.15 K, m1 = 0.01) of the same compound?
A: 998.97 ± 2 kg/m3

Q: And the mass density (298.15 K, m1 = 0.02)?
A: 999.53 ± 2 kg/m3

Q: And the mass density (298.15 K, m1 = 0.03)?
A: 1000.09 ± 2 kg/m3

Q: And the mass density (298.15 K, m1 = 0.04)?
A: 1000.67 ± 2 kg/m3

Q: What about the speed of sound (303.15 K, m1 = 0.01) of the same compound?
A: 1511.1 ± 1.3 m/s

Q: What about the speed of sound (303.15 K, m1 = 0.02) of the same compound?
A: 1512.9 ± 1.3 m/s

Q: What about the speed of sound (303.15 K, m1 = 0.03) of the same compound?
A: 1514.5 ± 1.3 m/s

Q: What about the speed of sound (303.15 K, m1 = 0.04) of the same compound?
A: 1516.3 ± 1.3 m/s

Q: What about the mass density (303.15 K, m1 = 0.01) of the same compound?
A: 997.53 ± 2 kg/m3

Q: And the mass density (303.15 K, m1 = 0.02)?
A: 998.07 ± 2 kg/m3

Q: And the mass density (303.15 K, m1 = 0.03)?
A: 998.61 ± 2 kg/m3

Q: And the mass density (303.15 K, m1 = 0.04)?
A: 999.19 ± 2 kg/m3

Q: And the speed of sound (308.15 K, m1 = 0.01)?
A: 1521.2 ± 1.3 m/s

Q: And the speed of sound (308.15 K, m1 = 0.02)?
A: 1522.9 ± 1.3 m/s

Q: What about the speed of sound (308.15 K, m1 = 0.03) of the same compound?
A: 1524.4 ± 1.3 m/s

Q: What about the speed of sound (308.15 K, m1 = 0.04) of the same compound?
A: 1526 ± 1.3 m/s

Q: What about the mass density (308.15 K, m1 = 0.01) of the same compound?
A: 995.95 ± 2 kg/m3

Q: And the mass density (308.15 K, m1 = 0.02)?
A: 996.49 ± 2 kg/m3

Q: What about the mass density (308.15 K, m1 = 0.03) of the same compound?
A: 997.02 ± 2 kg/m3

Q: What about the mass density (308.15 K, m1 = 0.04) of the same compound?
A: 997.58 ± 2 kg/m3
